According to patent US20260256761A1, “COMPOSITIONS AND METHODS FOR THE IDENTIFICATION OF INHIBITORS OF AND TREATMENT FOR ECTOPIC CALCIFICATION” (UNIVERSITY OF PITTSBURGH-OF THE COMMONWEALTH SYSTEM OF …, priority 2022, published 2026):

Key:
[1] = system: human aortic valve interstitial cells (AVICs); test: Osteogenic assay: calcification of human AVICs in osteogenic media (Alizarin Red); format: cell-based; conditions: for calcification of AVICs: STAT5 inhibitor 10 μM added every two days during osteogenic (OST) treatment, after 21 days of treatment (FIG. 6D)
Procedure: Human cell isolation. Patient-specific lines were established by using the same valves for histopathology, RNA, and cell isolation. Primary aortic valve interstitial cells (AVICs) were obtained from the patient aortic valve. Briefly, leaflets were washed with PBS containing 10 mg/ml gentamicin (GIBCO) and 250 μg/ml fungizone (GIBCO) and dissociated with 0.1% collagenase II at 37 C and 5% of CO2 for 18 hours. Then, the tissue was further dissociated by gently mixing it by pipetting with a serological pipette to ensure the release of A VICs and then passed through a […] filter to remove debris. Cells were pelleted and then resuspended in Dulbecco's Modified Eagle's Medium (DMEM) supplemented with 10% fetal bovine serum (FBS) and 1×penicillin-streptomycin (P/S). Human coronary artery smooth muscle cells (CASMC) were obtained from patient coronary. Briefly, vessels were washed with PBS containing 10 mg/ml gentamicin (GIBCO) and 250 μg/ml fungizone (GIBCO). Vessels were cut open to expose the lumen and intima and adventitia were gently scrapped. Vessels were then sectioned and dissociated with 0.1% collagenase II for 3 hrs. Cells were pelleted and then seed and expanded.
(§1) Cell Culture. AVICs lines were expanded in Dulbecco's Modified Eagle's Medium supplemented with 10% fetal bovine serum and 1×penicillin-streptomycin. Cells were used between passages 4 and 15. Growth media was changed every three days, and cells were split 1:2 when confluent. CASMC lines were expanded in smooth muscle media SMGM (CC-3181) supplemented with BULLETKIT (CC-4149). Human MSCs (PT-2501, Lonza) were expanded on Minimum Essential Medium alpha without nucleosides and supplemented with 10% fetal bovine serum and 1×penicillin-streptomycin and used between passages 4 and 10. Cells are routinely tested for mycoplasma contamination.
(§2) Osteogenic Assay. […]
(§3) Alizarin Red Staining and Quantification. […] Absorbance was at 405 nm using a 96-well plate spectrophotometer.

hMSCs = test: Osteogenic assay: calcification of human mesenchymal stem cells; format: cell-based; conditions: inhibitor 10 μM, osteogenic media, 21 days (FIG. 17)
Procedure: When cells reached confluence, media was replaced with osteogenic media (Minimum Essential Medium alpha with nucleosides, 10% FBS 1×P/S, 10 mM glycerol phosphate, 50 uM ascorbic acid 2-phosphate, and 100 nM dexamethasone) for 21 days. No treatment media consisted of Minimum Essential Medium alpha with nucleosides, 10% FBS, 1×P/S. Media was replaced every four days. […] P were calculated by Kruskal-Wallis H test with Dunn pairwise comparison post hoc test. Scalebar 400 μm.
as §1, §2, §3

hCASMC = test: Osteogenic assay: calcification of human coronary artery smooth muscle cells; format: cell-based; conditions: inhibitor 10 μM, osteogenic media, 21 days (FIG. 16D, FIG. 6E)
Procedure: Scalebar 100 μm (middle panel). Quantification of PLA signal is shown on the right graphs. n=4. […] Diagram depicting STAT5 and TERT binding RUNX2 promoter and the positions of the predicted STAT5 binding sites (bottom panel). […] Scalebar 400 μm n=8; means±SD. Quantification of calcification is shown on the right graph. Data is represented as means±SD. P were calculated by Kruskal-Wallis H test with Dunn pairwise comparison post hoc test. Scalebar 400 um. […] When the cells reached confluence, media was replaced with osteogenic media (Minimum Essential Medium alpha with nucleosides, 10% FBS, 1×P/S, 10 mM glycerol phosphate, 50 μM ascorbic acid 2-phosphate, and 100 nM dexamethasone) for 21 days. No treatment media consisted of Minimum Essential Medium alpha with nucleosides, 10% FBS, 1×P/S. Media was replaced every four days.
Quantification of protein levels. n=4 control, n=4 CAVD; means±SD; two-way ANOVA. […] Scalebar 100 um. Quantification of PLA is shown on the right graph. n=4. […] P were calculated by Kruskal-Wallis H test with Dunn pairwise comparison post hoc test. Scalebar 400 um. […] Scalebar 50 um.
Human cell isolation. Patient-specific lines were established by using the same valves for histopathology, RNA, and cell isolation. Primary aortic valve interstitial cells (AVICs) were obtained from the patient aortic valve. […]
Alizarin Red Staining and Quantification. […]

STAT5A = biological target: T1, STAT5A (Homo sapiens, UniProt P42229); conditions: as reported; cited from earlier work
T1 sequence (P42229 1-794): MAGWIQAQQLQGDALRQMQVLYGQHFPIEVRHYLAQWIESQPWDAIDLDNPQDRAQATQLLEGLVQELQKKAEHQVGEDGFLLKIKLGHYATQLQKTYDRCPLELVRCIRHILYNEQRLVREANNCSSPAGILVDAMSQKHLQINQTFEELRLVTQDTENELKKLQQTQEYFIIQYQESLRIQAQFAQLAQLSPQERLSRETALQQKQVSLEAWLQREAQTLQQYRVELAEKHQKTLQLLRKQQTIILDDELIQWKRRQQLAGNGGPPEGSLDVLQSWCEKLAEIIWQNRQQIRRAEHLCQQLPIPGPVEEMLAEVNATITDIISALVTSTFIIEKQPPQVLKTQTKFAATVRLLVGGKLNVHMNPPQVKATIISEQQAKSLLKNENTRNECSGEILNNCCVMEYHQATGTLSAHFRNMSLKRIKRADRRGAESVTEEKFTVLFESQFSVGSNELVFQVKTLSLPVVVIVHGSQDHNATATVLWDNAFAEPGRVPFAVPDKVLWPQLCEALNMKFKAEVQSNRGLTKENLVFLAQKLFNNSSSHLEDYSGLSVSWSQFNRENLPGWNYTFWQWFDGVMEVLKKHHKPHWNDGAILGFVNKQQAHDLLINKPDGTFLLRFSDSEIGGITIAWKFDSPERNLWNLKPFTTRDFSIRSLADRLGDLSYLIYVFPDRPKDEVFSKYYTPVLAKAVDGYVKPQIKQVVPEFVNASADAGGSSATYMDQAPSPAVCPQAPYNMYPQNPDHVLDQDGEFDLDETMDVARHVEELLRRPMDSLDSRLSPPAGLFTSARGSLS

SMILES	calcification of AVICs [1]	calcification in hMSCs (hMSCs)	calcification in hCASMC (hCASMC)	specific inhibition of STAT5A isoform (STAT5A)	ability of AVICs to calcify ([1]; BIBR1532 at 1, 10, or 100 nM added every two days during OST treatment, 28 days (FIG. 13C))
COc1cc(-c2cc(OP(=O)(O)O)cc(-c3cc(OC)c(OC)c(OC)c3)c2)cc(OC)c1OC [StafiA-1]	significantly inhibited calcification	significantly reduced the calcification	significantly reduced the calcification	specifically inhibit	–
O=C(COc1ccc2cc(C(=O)Nc3ccccc3)ccc2c1)NCc1ccc(OP(=O)(O)O)c(OP(=O)(O)O)c1 [StafiB-1]	this inhibition was of a greater extent than the inhibition observed when AVICs were treated with StafiB-1	–	did not	–	–
C/C(=C\C(=O)Nc1ccccc1C(=O)O)c1ccc2ccccc2c1 [BIBR1532]	–	–	–	–	did not alter the ability of AVICs to calcify
